# Laboratory results from patent US12528797B2, “Heterocyclic compounds for medical treatment” (C4 Therapeutics, Inc., priority 2019, dated 2026).
# Biological target: hCereblon(M1-L442)_hDDB1(M1-H1140) (Homo sapiens (Human), UniProt Q96SW2)
# Test: Fluorescence direct binding (tryptophan fluorescence titration)
# Conditions: 20° C., excitation 280 nm, emission 340 nm, assay buffer 50 mM Hepes 7.4 200 mM NaCl; read-out: Fluorescence h-Cereblon_DDB1 Mean Kd_EQ
# Description: Fluorescence Direct Binding Protocol
# Determination of the affinities of compounds to protein containing one or more tryptophan is measurable by monitoring the fluorescence emission in direct mode. The measurements depending on the protein available amounts are performed either manually in a cuvette on ISS-PC1 photon counting spectrofluorometer or automatically in well plates on a fluorescence plate reader device. Fluorescence titrations are performed at 20° C. in the chosen binding assay buffer by using a defined constant protein concentration against ligand concentration variations. Small aliquots of known ligand concentration solubilized in DMSO were added and the fluorescence, excited at 280 nm, was recorded at 340 nm. The fluorescence intensity was corrected for protein dilution and for the filter effect (Birdsall et al.). The corrected fluorescence intensity was plotted against the ligand concentration and fitted using a four-parameter sigmoidal function, from which the equilibrium dissociation constant Kd was computed using the law of mass action assuming a 1:1 protein-ligand complex (Eftink, 1997).
# • 1) Optimization of measurement parameters to minimize protein consumption and to minimize the dilution effect and the DMSO content • 2) Titration measurements of the protein against ligand by at least 12 titration steps to obtain a good s-curve fit • 3) Repeat the same titration measurements with the ligand alone to enable correction • 4) Check the stability of the protein once by titration against DMSO alone • 5) Determination of the molar extinction coefficients of the ligand at 280 and 340 nm with help of an UV-spectrophotometer • 6) Use Excel template for the correction of the measured raw data Use GraphPad Prism software for the quadratic binding fit and the KD evaluation.
# Chain of hCereblon(M1-L442)_hDDB1(M1-H1140) (Q96SW2 whole entry): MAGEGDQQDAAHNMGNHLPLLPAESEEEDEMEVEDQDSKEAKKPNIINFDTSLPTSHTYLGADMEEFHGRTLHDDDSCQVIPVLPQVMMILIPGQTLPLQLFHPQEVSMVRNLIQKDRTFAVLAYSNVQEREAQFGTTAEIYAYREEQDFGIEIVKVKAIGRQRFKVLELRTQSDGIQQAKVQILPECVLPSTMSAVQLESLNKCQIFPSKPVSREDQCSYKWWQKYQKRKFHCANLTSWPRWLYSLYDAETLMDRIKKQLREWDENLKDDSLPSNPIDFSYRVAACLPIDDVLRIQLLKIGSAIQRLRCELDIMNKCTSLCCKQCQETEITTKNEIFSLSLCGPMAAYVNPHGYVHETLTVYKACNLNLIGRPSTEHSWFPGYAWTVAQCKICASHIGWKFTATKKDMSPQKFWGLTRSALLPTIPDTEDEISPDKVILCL
# Chain of hCereblon(M1-L442)_hDDB1(M1-H1140) (Q16531 whole entry partner): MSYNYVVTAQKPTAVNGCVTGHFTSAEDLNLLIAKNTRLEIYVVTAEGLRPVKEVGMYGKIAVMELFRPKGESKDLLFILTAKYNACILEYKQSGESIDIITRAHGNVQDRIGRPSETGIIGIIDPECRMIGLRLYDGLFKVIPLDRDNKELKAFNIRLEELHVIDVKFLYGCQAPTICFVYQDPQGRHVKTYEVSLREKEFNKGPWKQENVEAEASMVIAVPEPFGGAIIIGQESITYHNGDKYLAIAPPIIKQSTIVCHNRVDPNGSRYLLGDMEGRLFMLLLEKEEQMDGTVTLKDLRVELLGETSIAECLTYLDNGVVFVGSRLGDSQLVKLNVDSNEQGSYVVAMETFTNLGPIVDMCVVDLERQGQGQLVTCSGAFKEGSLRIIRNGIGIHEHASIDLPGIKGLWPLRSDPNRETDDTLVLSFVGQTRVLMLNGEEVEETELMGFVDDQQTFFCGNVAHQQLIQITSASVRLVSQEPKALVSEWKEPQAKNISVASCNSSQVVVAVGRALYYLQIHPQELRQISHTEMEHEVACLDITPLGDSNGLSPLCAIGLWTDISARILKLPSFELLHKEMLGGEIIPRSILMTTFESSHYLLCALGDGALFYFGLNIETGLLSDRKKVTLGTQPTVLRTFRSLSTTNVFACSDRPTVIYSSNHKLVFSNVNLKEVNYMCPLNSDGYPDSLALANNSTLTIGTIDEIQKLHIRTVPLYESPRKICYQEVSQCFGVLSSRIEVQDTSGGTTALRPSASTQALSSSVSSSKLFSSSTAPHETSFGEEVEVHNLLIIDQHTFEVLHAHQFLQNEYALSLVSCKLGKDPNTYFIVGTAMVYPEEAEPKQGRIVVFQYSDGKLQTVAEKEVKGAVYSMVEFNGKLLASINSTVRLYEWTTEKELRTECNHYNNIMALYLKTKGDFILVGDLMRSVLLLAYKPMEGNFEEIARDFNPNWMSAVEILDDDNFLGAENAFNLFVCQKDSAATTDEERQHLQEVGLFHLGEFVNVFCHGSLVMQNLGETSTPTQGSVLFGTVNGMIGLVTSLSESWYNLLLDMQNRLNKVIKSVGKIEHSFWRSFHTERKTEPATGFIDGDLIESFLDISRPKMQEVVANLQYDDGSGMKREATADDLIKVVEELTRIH
row,Kd [nM],Compound
1,4,"O=C(Nc1ccc2[nH]c(=O)oc2c1)c1ccccc1 [Example 1, N-(2-Oxo-3H-1,3-benzoxazol-6-yl)benzamide]"
2,54,"O=C(Nc1ccccc1)c1ccc2[nH]c(=O)oc2c1 [Example 11, 2-Oxo-N-phenyl-3H-1,3-benzoxazole-6-carboxamide]"
3,15,"O=C1Cc2cc(C(=O)N3CCc4ccccc43)ccc2N1 [Example 17, 5-(Indoline-1-carbonyl)indolin-2-one]"
4,7,"O=C1Cc2cc(NC(=O)c3ccco3)ccc2N1 [Example 2, N-(2-Oxoindolin-5-yl)furan-2-carboxamide]"
5,91,"O=C1Cc2cc(C(=O)Nc3ccccc3)ccc2N1 [Example 10, 2-Oxo-N-phenylindoline-5-carboxamide]"
6,7,"CNC(=O)c1ccc2c(c1)nc(C(C)C)n2-c1cnc2c(c1)CC(=O)N2 [Example 26, 2-Isopropyl-N-methyl-1-(2-oxo-1,3-dihydropyrrolo[2,3-b]pyridin-5-yl)benzimidazole-5-carboxamide]"
7,28,"O=C(Nc1ccc2c(c1)C(F)(F)C(=O)N2)C1CCCc2ccccc21 (stereo not drawn) [Example 24, N-(3,3-difluoro-2-oxo-indolin-5-yl)tetralin-1-carboxamide]"
8,3,"CNC(=O)c1ccc2c(c1)nc(C(C)C)n2-c1ccc2c(c1)CC(=O)N2 [Example 5, 2-Isopropyl-N-methyl-1-(2-oxoindolin-5-yl)benzimidazole-5-carboxamide]"
9,6,"CC(=O)N1CCC(NC(=O)c2ccc3[nH]c(=O)oc3c2)CC1 [Example 12, N-(1-Acetyl-4-piperidyl)-2-oxo-3H-1,3-benzoxazole-6-carboxamide]"
10,24,"O=C(Nc1ccccc1)c1cnc2[nH]c(=O)oc2c1 [Example 18, 2-Oxo-N-phenyl-3H-oxazolo[4,5-b]pyridine-6-carboxamide]"
11,< 1,"CC(C)c1nc2ccccc2n1-c1ccc2c(c1)C(F)(F)C(=O)N2 [Example 21, 3,3-Difluoro-5-(2-isopropylbenzimidazol-1-yl)indolin-2-one]"
12,79,"O=C(Nc1ccccc1)c1ccc2[nH]c(=O)sc2c1 [Example 15, 2-Oxo-N-phenyl-3H-1,3-benzothiazole-6-carboxamide]"
13,7,"CC(=O)N1CCC(NC(=O)c2cnc3[nH]c(=O)oc3c2)CC1 [Example 19, N-(1-Acetyl-4-piperidyl)-2-oxo-3H-oxazolo[4,5-b]pyridine-6-carboxamide]"
14,52,"O=C(Nc1ccc2c(c1)C(F)(F)C(=O)N2)c1coc2ccccc12 [Example 25, N-(3,3-difluoro-2-oxo-indolin-5-yl)benzofuran-3-carboxamide]"
15,8,"Nc1ccccc1Nc1ccc2[nH]c(=O)oc2c1 [Example 8, 6-(2-Aminoanilino)-3H-1,3-benzoxazol-2-one]"
16,108,"CC(C)c1nc2ccccc2n1-c1ccc2[nH]c(=O)oc2c1 [Example 9, 6-(2-Isopropylbenzimidazol-1-yl)-3H-1,3-benzoxazol-2-one]"
17,4,"O=C(c1ccc2[nH]c(=O)oc2c1)N1CCc2ccccc21 [Example 13, 6-(Indoline-1-carbonyl)-3H-1,3-benzoxazol-2-one]"
18,14,"O=C(c1ccc2[nH]c(=O)oc2c1)N1Cc2cccc([N+](=O)[O-])c2C1 [Example 23, 6-(4-Nitroisoindoline-2-carbonyl)-3H-1,3-benzoxazol-2-one]"
19,28,"O=C(c1ccc2[nH]c(=O)sc2c1)N1CCc2ccccc21 [Example 16, 6-(Indoline-1-carbonyl)-3H-1,3-benzothiazol-2-one]"
20,< 1,"CC(C)c1nc2ccccc2n1-c1cnc2c(c1)CC(=O)N2 [Example 27, 5-(2-Isopropylbenzimidazol-1-yl)-1,3-dihydropyrrolo[2,3-b]pyridin-2-one]"
21,19,"CC(C)c1nc2ccccc2n1-c1ccc2[nH]c(=O)sc2c1 [Example 7, 6-(2-Isopropylbenzimidazol-1-yl)-3H-1,3-benzothiazol-2-one]"
22,2,"O=C(c1ccc2[nH]c(=O)oc2c1)N1Cc2cccc(O)c2C1 [Example 22, 6-(4-Hydroxyisoindoline-2-carbonyl)-3H-1,3-benzoxazol-2-one]"
23,13,"O=C1Cc2cc(C(=O)N3CCc4ccccc43)cnc2N1 [Example 20, 5-(Indoline-1-carbonyl)-1,3-dihydropyrrolo[2,3-b]pyridin-2-one]"
24,2,"CNC(=O)c1ccc2c(c1)nc(C(C)C)n2-c1ccc2c(c1)NC(=O)C2 [Example 4, 2-Isopropyl-N-methyl-1-(2-oxoindolin-6-yl)benzimidazole-5-carboxamide]"
25,24,"O=C(c1ccc2[nH]c(=O)oc2c1)N1CCc2cccnc21 [Example 14, 6-(2,3-Dihydropyrrolo[2,3-b]pyridine-1-carbonyl)-3H-1,3-benzoxazol-2-one]"
26,14,"Cc1ccccc1OCC(=O)Nc1ccc2[nH]c(=O)sc2c1 [Example 3, 2-(2-Methylphenoxy)-N-(2-oxo-3H-1,3-benzothiazol-6-yl)acetamide]"
27,< 1,"Nc1ccccc1Nc1ccc2[nH]c(=O)sc2c1 [Example 6, 6-(2-Aminoanilino)-3H-1,3-benzothiazol-2-one]"
